According to patent US4216216A, “Aromatic piperazinyl substituted dihydrouracils” (Hoechst Aktiengesellschaft, priority 1977, dated 1980):
Values after ≈ are worked out from the molar mass of the structure shown. Where a name gives a salt, the structure may show the parent alone.

Columns and labels:
[1] = test system: serotonin spasm (bronchospasm); experiment: Test a: inhibition of serotonin-induced bronchospasm (Konzett and Rossler); assay type: in vivo; settings: Cavia porcellus, guinea pigs
Protocol: (§1) For determination of the serotonin-antagonistic activity the following pharmacological tests were used: Test a: (Test according to Konzett and Rossler (Arch. exp. Path. Pharmak. 195 (1940) 71). Domestic albino guinea pigs were anaesthetised with 1.25 g/kg of urethane intraperitoneally (i.p.). Bronchial resistance was recorded in the open thorax by a recorder ("bronchotransducer") manufactured by the firm Ugo Basile (Milan); respiratory frequency was kept constant by artificial respiration at a frequency of 58 strokes/minute, the inflation pressure was 9 cm H2 O column. To induce bronchospasms, 5 to […] of serotonin (as serotonin-creatinine sulphate) were injected into one of the jugular veins every 15 minutes in a volume of 0.1 ml/kg body weight. The test substances were administered in a volume of 1 ml/kg either intravenously within 30 seconds, 2 minutes before generation of the serotonin spasm or intraduodenally or orally by oesphageal tube 15 minutes before the spasm. […] The results are given in Table I. Test b: (Serotonin antagonism in the isolated uterus of rats according to Robert A. Turner: Screening Methods in Pharmacology, Academic Press 1965 (New York and London)) Female Sprague-Dawley rats with a weight of 180 to 240 g were given intraperitoneally 2 mg of Oestromon (Merck, Darmstadt) 24 hours before extraction of the uterus in order to induce oestrus. The organ bath was kept at 22° C. and contained a Tyrode solution having a specific composition. The test substance was added to the bath in aqueous solution with a total volume of 0.1 ml. The serotonin concentration administered was 10^-8 g/ml bath. The ED50 value corresponded to the dose by which a serotonin spasm is inhibited by 50%. Test c: (5-Hydroxy-L-tryptophan antagonism in mice). A single administration of 5-hydroxy-L-tryptophan causes in mice a strong increase in defecation due to the increased biosynthesis of serotonin from exogenically supplied amino acids. This defecation effect can be reduced by serotonin antagonists. The test substances were administered orally 45 minutes before administration of the tryptophan. The tryptophan dose was 40 mg/kg i.p.

[2] = Acute toxicity, mice; settings: mouse, in vivo, mortality within 7 days
Description: (§2) Table III sets out for some compounds, the toxicity determined in mice and rats after intraperitoneal and intravenous administration over the mortality occurring within 7 days as LD50 or LD50 range.

[3] = test system: serotonin spasm in the isolated uterus of rats; experiment: Test b: serotonin antagonism in the isolated uterus of rats; assay type: cell-based, rats (Sprague-Dawley); settings: isolated rat uterus; serotonin 10^-8 g/ml bath; 22° C.; read-out: ED50 (the source's name)
Protocol: as §1

[4] = test system: thrombocyte aggregation; experiment: Thrombocyte aggregation inhibiting activity (ADP-induced, platelet-rich plasma); assay type: cell-based, beagle dogs
Protocol: Thrombocyte aggregation was induced experimentally in platelet-rich plasm (PRP) of beagle dogs by in vitro administration of adenosine diphosphate (ADP) in a final concentration of 2.5×10^-6 and was measured by means of a universal aggregometer (manufactured by B. Braun/Melsungen). An Eppendorf Photometer recorded the change in the optical density of the plasma.
The following parameters were determined:
1. The angle, α, between the tangent at the starting point of the curve and the horizontal axis,
2. The time, Tr, from the start of rotation (aggregation) until complete disaggregation,
3. The maximum amplitude (Ma) of the aggregation curve as the difference between starting transmission and maximum transmission.

[5] = Acute toxicity, rats; settings: rat, in vivo, iv, mortality within 7 days
Description: as §2

[6] = test system: 5-Hydroxy-L-tryptophan; experiment: Test c: 5-Hydroxy-L-tryptophan antagonism in mice (defecation); assay type: in vivo; settings: 5-hydroxy-L-tryptophan 40 mg/kg i.p.
Protocol: as §1
Evaluation was carried out 1 hour after administration of the preparation by measurement of the quantity of faeces produced. A reduction in this quantity by not more than 25% of the control is indicated, according to the result, by 0 or (+), from 25 to 50% by +, from 50 to 75% by ++ and over 75% +++ (see Table I).

[7] = test system: mice; settings: i.v., Speigt and Avery, Drugs 3, 159-203 (1972), 10080 min; cited from earlier work
[8] = test system: rats; settings: i.v., Speigt and Avery, Drugs 3, 159-203 (1972), 10080 min; cited from earlier work
[9] = pH value of aqueous solution; assay type: physicochemical; settings: for pH value of a 0.1% aqueous solution: 0.1% solution
[10] = test system: serotonin; settings: background statement; cited from earlier work
[11] = test system: thrombocyte aggregation; settings: background statement; cited from earlier work
[12] = iv, 2 min, i.v., 2 minutes after injection
[13] = 0.25 h, i.d. (intraduodenal), 15 minutes after administration
[14] = po, 0.25 h, p.o., 15 minutes after administration
[15] = Canis lupus familiaris, final concentration 10^-4 g/ml, read-out: Change of Ma in %
[16] = final concentration 3 × 10^-5 g/ml

SMILES | ED50 [1, 12] [mg/kg] | ED50 [1, 13] [mg/kg] | IC50 [3] [ng/mL] | inhibition at 100 µg/mL [4, 15] [%] | Ma, maximum amplitude of the aggregation curve ([4]; final concentration 10^-4 g/ml) | Tr, time from start of rotation (aggregation) until complete disaggregation ([4]; final concentration 10^-4 g/ml) [min] | angle α between the tangent at the starting point of the curve and the horizontal axis ([4]; final concentration 10^-4 g/ml) | LD50 at 168 h ([2]; iv) [mg/kg] | Strength of activity (reduction in quantity of faeces) ([6]; 20 mg/kg p.o.) | further results
CC1(C)CC(=O)N(CCCN2CCN(c3ccc(F)cc3)CC2)C(=O)N1 [compound 11] | 0.01 to 0.03 |  |  |  |  |  |  |  |  | LD50 at 168 h ([2]; ip): 100 to 300 mg/kg
CC1(C)CC(=O)N(CCCN2CCN(c3ccccc3)CC2)C(=O)N1 [compound 9] | 0.003 to 0.01 | 0.01 to 0.03 | 1 to 10 (≈ 2.9 to 29 nM) | 20 | 483 | 4.0 | 87.0 | 83 |  | ED50 [1, 14]: 0.1 to 0.3 mg/kg; inhibition at 30 µg/mL ([4]; Canis lupus familiaris, final concentration 3 × 10^-5 g/ml, read-out: Change of Ma in %): 13%; inhibition at 10 µg/mL ([4]; Canis lupus familiaris, final concentration 10^-5 g/ml, read-out: Change of Ma in %): 11%; Ma, maximum amplitude of the aggregation curve [4, 16]: 523; Tr, time from start of rotation (aggregation) until complete disaggregation [4, 16]: 4.3 min; angle α between the tangent at the starting point of the curve and the horizontal axis [4, 16]: 86.6; Ma, maximum amplitude of the aggregation curve ([4]; final concentration 10^-5 g/ml): 535; Tr, time from start of rotation (aggregation) until complete disaggregation ([4]; final concentration 10^-5 g/ml): 4.6 min; angle α between the tangent at the starting point of the curve and the horizontal axis ([4]; final concentration 10^-5 g/ml): 86.5; LD50 at 168 h ([2]; ip, for the base): 100 to 300 mg/kg; LD50 at 168 h ([5]; for the base): 60 mg/kg
CN1CCC(=C2c3ccccc3CCc3sccc32)CC1 [Pizotyline-HCl, reference compound] | 0.01 to 0.05 | 0.01 to 0.1 | 1 to 10 |  |  |  |  |  | + (from 25 to 50%) | ED50 [1, 14]: 0.5 to 1 mg/kg; LD50 [7]: 43 ± 1.8 mg/kg; LD50 [8]: 17 ± 1.1 mg/kg
CC1(C)CC(=O)N(CCN2CCN(c3ccccc3)CC2)C(=S)N1 [compound 18] | 0.001 to 0.003 | ~0.03 | 0.1 to 1 (≈ 0.289 to 2.89 nM) | 19 | 328 | 3.0 | 85.8 | 100 to 150 | ++ (from 50 to 75%) | Strength of activity (reduction in quantity of faeces) ([6]; 10 mg/kg p.o.): ++ (from 50 to 75%); LD50 at 168 h [5]: 66 mg/kg; pH value of a 0.1% aqueous solution [9]: about 4.3
CN1CCC(=C2c3ccccc3CCc3sccc32)CC1 [Pizotyline] |  |  |  |  |  |  |  |  |  | serotonin antagonism [10]: serotonin-antagonistic activities
CN(C)CCCOC1(Cc2ccccc2)CCCCCC1 [Fludilate, reference compound] |  |  |  |  | 324 | 2.6 | 85.2 |  |  | Change of Ma in % ([4]; final concentration 10^-4 g/ml): -34%
CC1(C)CC(=O)N(CCN2CCN(c3ccccc3)CC2)C(=S)N1 [dihydrochloride hydrate] |  |  |  |  |  |  |  |  |  | pH value of a 10% aqueous solution ([9]; 10% aqueous solution): around 1.8
CN1C(=O)N(CCCN2CCN(c3ccccc3)CC2)C(=O)CC1(C)C [compound 26] |  |  |  |  |  |  |  |  |  | pH value of a 0.1% aqueous solution [9]: around 3.0
CC[C@@H](CO)NC(=O)[C@@H]1C=C2c3cccc4c3c(cn4C)C[C@H]2N(C)C1 [methysergide] |  |  |  |  |  |  |  |  |  | serotonin antagonism [10]: serotonin-antagonistic activities
CC1NC(=O)N(CCCN2CCN(c3ccccc3)CC2)C(=O)C1C (stereo not shown) [compound 17] | 0.001 to 0.003 | 0.01 to 0.03 | 1 to 10 (≈ 2.9 to 29 nM) | 18 | 344 | 2.3 | 85.9 | 54 | ++ (from 50 to 75%) | Strength of activity (reduction in quantity of faeces) ([6]; 10 mg/kg p.o.): + (from 25 to 50%); LD50 at 168 h [5]: 25 to 40 mg/kg
CN(C)CCCOC1(Cc2ccccc2)CCCCCC1 [Bencyclane] |  |  |  |  |  |  |  |  |  | serotonin antagonism [10]: weak serotonin antagonism; inhibition of thrombocyte aggregation [11]: inhibiting thrombocyte aggregation
CC1(C)CC(=O)N(CCCN2CCN(c3ccccc3)CC2)C(=S)N1 [compound 16] | 0.01 to 0.03 | 0.3 | 1 to 10 (≈ 2.77 to 27.7 nM) | 42 | 315 | 1.8 | 86.3 | 40 to 63 | + (from 25 to 50%) | ED50 [1, 14]: ~0.3 mg/kg; Strength of activity (reduction in quantity of faeces) ([6]; 10 mg/kg p.o.): + (from 25 to 50%); LD50 at 168 h ([2]; ip): 200 to 400 mg/kg
